Results: the CheMixHub viscosity set

Assay: xn = mol fraction of the nth substance listed

CCCCCC(=O)[O-].[NH3+]CCO + O
viscosity [mPa·s], 101 kPa
Details	x1 = 0.0053	x1 = 0.0114	x1 = 0.0176	x2 = 0.9074	x2 = 0.9364	x2 = 0.9583	x2 = 0.9753
293.15 K	1.44	1.692	1.82	12.85	6.672	3.858	2.546
298.15 K	1.26	1.5	1.68	10.73	5.73	3.306	2.04
303.15 K	1.11	1.35	1.494	9.048	4.92	2.868	1.806

Cc1ccc(Cl)cc1 + Nc1cccc(Cl)c1
viscosity [mPa·s], 100 kPa
Details	x2 = 0.0757	x2 = 0.1649	x2 = 0.2579	x2 = 0.3519	x2 = 0.4697	x2 = 0.5707	x2 = 0.6749	x2 = 0.7826	x2 = 0.8935
303.15 K	1.052	1.369	1.698	2.029	2.441	2.791	3.15	3.518	3.895
308.15 K	0.968	1.253	1.549	1.847	2.217	2.531	2.853	3.184	3.521
313.15 K	0.899	1.152	1.414	1.677	2.003	2.28	2.564	2.854	3.15
318.15 K	0.823	1.045	1.273	1.502	1.786	2.027	2.274	2.526	2.782

CCCCCCCCCCO + CCCCCCCCCCCCCCCC
100 kPa, x2 = 0.0921
Details	viscosity [mPa·s]
298.2 K	9.77
308.2 K	6.71
318.2 K	4.76

Cc1ccccc1C + O=C1CCCO1
viscosity [mPa·s], 101.33 kPa
Details	x2 = 0.1199	x2 = 0.1801	x2 = 0.2998	x2 = 0.4005	x2 = 0.5044	x2 = 0.5994	x2 = 0.7011	x2 = 0.7885	x2 = 0.9087
293.15 K	0.907	0.955	1.054	1.145	1.248	1.351	1.472	1.584	1.75
298.15 K	0.854	0.901	0.996	1.081	1.175	1.269	1.379	1.48	1.629
303.15 K	0.795	0.839	0.927	1.006	1.093	1.178	1.276	1.367	1.502
308.15 K	0.747	0.787	0.867	0.937	1.014	1.09	1.179	1.263	1.39

CCCCCCCCCCCC + CCCCCCCCCC
298.15 K, 101.33 kPa
Details	viscosity [mPa·s]
x2 = 0.1071	1.294
x2 = 0.2012	1.243
x2 = 0.3014	1.198
x2 = 0.4079	1.146
x2 = 0.5077	1.092
x2 = 0.6096	1.036
x2 = 0.7085	0.9801
x2 = 0.8052	0.9488
x2 = 0.9045	0.9028

COCCOCCO + CCOC(C)(C)C
viscosity [mPa·s], 101 kPa
Details	293.15 K	298.15 K	303.15 K
x2 = 0.0501	3.519	3.231	2.865
x2 = 0.1	3.158	2.906	2.589
x2 = 0.1459	2.847	2.627	2.351
x2 = 0.1998	2.518	2.328	2.097
x2 = 0.2556	2.218	2.06	1.862
x2 = 0.3031	1.991	1.855	1.683
x2 = 0.3521	1.784	1.669	1.52
x2 = 0.4004	1.605	1.506	1.377
x2 = 0.4511	1.438	1.355	1.244
x2 = 0.4998	1.299	1.227	1.13
x2 = 0.5628	1.142	1.082	1.001
x2 = 0.5997	1.062	1.007	0.934
x2 = 0.6621	0.942	0.894	0.833
x2 = 0.6997	0.879	0.834	0.779
x2 = 0.7411	0.816	0.773	0.725
x2 = 0.7995	0.736	0.697	0.657
x2 = 0.8401	0.687	0.651	0.616
x2 = 0.8998	0.623	0.591	0.56
x2 = 0.9498	0.575	0.545	0.518

O=C([O-])[C@H](O)[C@@H](O)[C@H](O)[C@H](O)CO.[Na+] + O
viscosity [mPa·s], 100 kPa
Details	298.15 K	308.15 K	318.15 K
x1 = 0.0004	0.8985	0.7295	0.6062
x1 = 0.0007	0.9101	0.7386	0.6138
x1 = 0.001	0.9193	0.7501	0.6218

Cc1ccccc1C + CCCCCCCCCCO
viscosity [mPa·s], 101 kPa
Details	298.15 K	308.15 K
x1 = 0.0766	9.611	6.581
x1 = 0.1331	8.188	5.606
x1 = 0.1823	7.108	4.864
x1 = 0.2509	5.802	3.987
x1 = 0.3173	4.749	3.288
x1 = 0.3896	3.813	2.671
x1 = 0.4556	3.107	2.214
x1 = 0.5261	2.509	1.815
x1 = 0.6054	1.983	1.459
x1 = 0.6597	1.695	1.264
x1 = 0.7364	1.374	1.041
x1 = 0.8029	1.156	0.895
x1 = 0.873	0.977	0.781
x1 = 0.9447	0.84	0.698

c1ccc(Oc2ccccc2)cc1 + CCOCC
298.15 K, 101 kPa
Details	viscosity [mPa·s]
x2 = 0.0704	3.158
x2 = 0.1318	2.737
x2 = 0.2193	2.153
x2 = 0.3297	1.631
x2 = 0.4245	1.258
x2 = 0.5102	0.9926
x2 = 0.6076	0.7614
x2 = 0.7088	0.5733
x2 = 0.7826	0.4552
x2 = 0.9092	0.3106

OCCOCCOCCO + CCOC(C)=O
101 kPa
Details	viscosity [mPa·s]
298.15 K, x2 = 0.1482	22.05
308.15 K, x2 = 0.0466	18.65

NC(N)=O + CCO
viscosity [mPa·s], 101 kPa
Details	293.15 K	298.15 K	303.15 K	308.15 K	313.15 K	318.15 K	323.15 K
x1 = 0.02956	1.328	1.204	1.095	0.999	0.914	0.839	0.772
x1 = 0.03764	1.386	1.251	1.134	1.031	0.94	0.859	0.788
x1 = 0.04782	1.476	1.329	1.202	1.09	0.991	0.904	0.828

COCCOCCO + O
viscosity [mPa·s]
Details	293.15 K	303.15 K	308.15 K	313.15 K	323.15 K
101.3 kPa, x1 = 0.0164	1.374	1.061	–	0.8527	0.6962
101.3 kPa, x1 = 0.0361	1.895	1.421	–	1.108	0.8862
101.3 kPa, x1 = 0.0603	2.602	1.916	–	1.445	1.131
101.3 kPa, x1 = 0.0909	3.571	2.525	–	1.858	1.441
101.3 kPa, x1 = 0.1298	4.594	3.232	–	2.367	1.782
101.3 kPa, x1 = 0.1836	5.705	3.941	–	2.848	2.114
101.3 kPa, x1 = 0.2589	6.431	4.445	–	3.193	2.366
101.3 kPa, x1 = 0.3739	6.442	4.514	–	3.269	2.451
101.3 kPa, x1 = 0.4594	6.083	4.337	–	3.174	2.412
101.3 kPa, x1 = 0.5736	5.544	4.024	–	2.994	2.296
101.3 kPa, x1 = 0.6641	5.108	3.753	–	2.849	2.204
101.3 kPa, x1 = 0.7397	4.791	3.554	–	2.724	2.122
101.3 kPa, x1 = 0.8287	4.441	3.341	–	2.594	2.031
101.3 kPa, x1 = 0.8794	4.286	3.239	–	2.511	1.987
101.3 kPa, x1 = 0.9331	4.149	3.143	–	2.455	1.955
101.33 kPa, x1 = 0.013	–	–	0.914	–	–
101.33 kPa, x1 = 0.0426	–	–	1.445	–	–
101.33 kPa, x1 = 0.058	–	–	1.73	–	–
101.33 kPa, x1 = 0.0793	–	–	2.131	–	–
101.33 kPa, x1 = 0.0999	–	–	2.476	–	–
101.33 kPa, x1 = 0.1286	–	–	2.872	–	–
101.33 kPa, x1 = 0.1865	–	–	3.333	–	–
101.33 kPa, x1 = 0.3088	–	–	3.876	–	–
101.33 kPa, x1 = 0.4518	–	–	3.836	–	–
101.33 kPa, x1 = 0.5434	–	–	3.625	–	–
101.33 kPa, x1 = 0.6518	–	–	3.448	–	–
101.33 kPa, x1 = 0.7694	–	–	3.235	–	–
101.33 kPa, x1 = 0.9087	–	–	2.996	–	–
101.33 kPa, x2 = 0.0109	–	–	2.874	–	–

CCC#N + CC#N
298 K, 101.33 kPa
Details	viscosity [mPa·s]
x1 = 0.1298	0.35
x1 = 0.2716	0.36
x1 = 0.4271	0.374
x1 = 0.5986	0.384
x1 = 0.7885	0.402
